Test results published in patent US20100267697A1, “ION CHANNEL MODULATORS” (Wyeth, priority 2006, published 2010).
Structures can show the parent of a compound that is named as a salt.

Each compound was assayed against T1, human Cav2.2 (composed of the subunits α1, β3 and α2δ) (Homo sapiens, UniProt Q00975) (assay: FLIPR assay (TSA201 cells stably transfected with human Cav2.2 and human Kir2.3, FLUO-4 Ca2+ signal, KCl depolarization)). Conditions: 70 mM KCl depolarization, average value.
T1 construct: expressed in transfected cells
T1 sequence (Q00975 whole entry): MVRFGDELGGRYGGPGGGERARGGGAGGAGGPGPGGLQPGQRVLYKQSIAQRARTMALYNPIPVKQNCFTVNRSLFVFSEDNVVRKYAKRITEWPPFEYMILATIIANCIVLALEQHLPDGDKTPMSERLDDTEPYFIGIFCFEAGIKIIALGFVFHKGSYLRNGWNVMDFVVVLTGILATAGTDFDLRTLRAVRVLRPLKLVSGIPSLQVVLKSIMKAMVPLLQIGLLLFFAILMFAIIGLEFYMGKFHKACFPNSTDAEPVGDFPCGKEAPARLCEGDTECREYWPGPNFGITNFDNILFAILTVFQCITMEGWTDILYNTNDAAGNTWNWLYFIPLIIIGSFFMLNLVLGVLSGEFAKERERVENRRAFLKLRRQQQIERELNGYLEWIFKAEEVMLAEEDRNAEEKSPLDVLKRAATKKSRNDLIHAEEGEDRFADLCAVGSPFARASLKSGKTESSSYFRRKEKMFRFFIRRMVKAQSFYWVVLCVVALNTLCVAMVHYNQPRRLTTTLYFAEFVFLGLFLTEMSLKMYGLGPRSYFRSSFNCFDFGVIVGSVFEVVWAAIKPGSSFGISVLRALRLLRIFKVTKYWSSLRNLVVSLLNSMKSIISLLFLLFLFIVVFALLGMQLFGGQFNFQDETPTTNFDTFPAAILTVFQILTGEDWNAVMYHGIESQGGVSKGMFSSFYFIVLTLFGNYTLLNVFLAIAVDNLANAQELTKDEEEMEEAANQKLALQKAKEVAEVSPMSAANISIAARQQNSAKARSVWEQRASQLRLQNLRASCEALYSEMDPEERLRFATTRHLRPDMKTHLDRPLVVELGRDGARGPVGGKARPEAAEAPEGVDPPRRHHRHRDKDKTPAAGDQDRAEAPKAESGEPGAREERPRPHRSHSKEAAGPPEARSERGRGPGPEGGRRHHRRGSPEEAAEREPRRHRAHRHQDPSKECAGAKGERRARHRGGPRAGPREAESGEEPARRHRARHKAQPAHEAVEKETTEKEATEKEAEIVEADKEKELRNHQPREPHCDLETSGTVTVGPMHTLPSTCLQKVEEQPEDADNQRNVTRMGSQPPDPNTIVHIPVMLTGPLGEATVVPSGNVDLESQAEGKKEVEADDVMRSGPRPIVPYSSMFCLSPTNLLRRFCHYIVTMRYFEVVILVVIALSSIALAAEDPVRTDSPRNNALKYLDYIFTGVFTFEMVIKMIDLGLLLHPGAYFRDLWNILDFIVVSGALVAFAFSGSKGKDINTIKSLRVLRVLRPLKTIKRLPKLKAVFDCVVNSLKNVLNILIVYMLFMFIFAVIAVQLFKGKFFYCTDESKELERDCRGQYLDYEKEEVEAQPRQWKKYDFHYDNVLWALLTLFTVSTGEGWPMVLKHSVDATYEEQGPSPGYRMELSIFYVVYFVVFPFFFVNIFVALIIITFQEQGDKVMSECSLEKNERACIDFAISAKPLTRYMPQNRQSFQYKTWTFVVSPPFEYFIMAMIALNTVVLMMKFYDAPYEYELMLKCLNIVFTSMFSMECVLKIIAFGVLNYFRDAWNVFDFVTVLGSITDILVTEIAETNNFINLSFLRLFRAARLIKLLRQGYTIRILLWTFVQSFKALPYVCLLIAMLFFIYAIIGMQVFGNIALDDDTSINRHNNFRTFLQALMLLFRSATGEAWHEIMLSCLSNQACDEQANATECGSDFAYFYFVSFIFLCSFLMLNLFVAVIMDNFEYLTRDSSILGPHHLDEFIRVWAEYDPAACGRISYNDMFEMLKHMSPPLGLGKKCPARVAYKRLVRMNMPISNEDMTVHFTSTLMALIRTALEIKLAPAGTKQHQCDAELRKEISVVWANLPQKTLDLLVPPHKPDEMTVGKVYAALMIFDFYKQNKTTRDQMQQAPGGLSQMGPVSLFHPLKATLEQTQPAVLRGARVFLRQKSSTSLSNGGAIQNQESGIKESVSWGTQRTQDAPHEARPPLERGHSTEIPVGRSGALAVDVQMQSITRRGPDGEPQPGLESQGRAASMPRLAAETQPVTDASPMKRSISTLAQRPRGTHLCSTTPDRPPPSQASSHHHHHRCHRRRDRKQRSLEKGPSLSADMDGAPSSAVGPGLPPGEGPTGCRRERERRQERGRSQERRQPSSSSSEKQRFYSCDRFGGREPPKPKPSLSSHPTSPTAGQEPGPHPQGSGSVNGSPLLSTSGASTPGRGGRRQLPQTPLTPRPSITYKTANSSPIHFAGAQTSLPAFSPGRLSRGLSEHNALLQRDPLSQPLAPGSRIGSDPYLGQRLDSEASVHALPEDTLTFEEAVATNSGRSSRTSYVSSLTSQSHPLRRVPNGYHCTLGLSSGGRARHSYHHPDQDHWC
T1 sequence (P54284 whole entry partner): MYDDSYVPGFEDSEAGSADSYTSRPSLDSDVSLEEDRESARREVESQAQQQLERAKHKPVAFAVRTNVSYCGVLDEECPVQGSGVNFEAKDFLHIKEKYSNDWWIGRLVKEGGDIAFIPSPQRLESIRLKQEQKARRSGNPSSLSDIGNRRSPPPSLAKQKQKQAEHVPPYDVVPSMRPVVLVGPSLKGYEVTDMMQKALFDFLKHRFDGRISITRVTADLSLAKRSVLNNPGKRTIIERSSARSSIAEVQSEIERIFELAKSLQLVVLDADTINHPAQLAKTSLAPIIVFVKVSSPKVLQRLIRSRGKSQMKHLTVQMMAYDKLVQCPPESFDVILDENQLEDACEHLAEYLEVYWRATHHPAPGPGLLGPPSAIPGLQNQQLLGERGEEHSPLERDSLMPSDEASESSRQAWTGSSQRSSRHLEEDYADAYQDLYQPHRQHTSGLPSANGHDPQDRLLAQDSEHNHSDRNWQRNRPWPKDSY
T1 sequence (P54289 25-946 partner limits assumed): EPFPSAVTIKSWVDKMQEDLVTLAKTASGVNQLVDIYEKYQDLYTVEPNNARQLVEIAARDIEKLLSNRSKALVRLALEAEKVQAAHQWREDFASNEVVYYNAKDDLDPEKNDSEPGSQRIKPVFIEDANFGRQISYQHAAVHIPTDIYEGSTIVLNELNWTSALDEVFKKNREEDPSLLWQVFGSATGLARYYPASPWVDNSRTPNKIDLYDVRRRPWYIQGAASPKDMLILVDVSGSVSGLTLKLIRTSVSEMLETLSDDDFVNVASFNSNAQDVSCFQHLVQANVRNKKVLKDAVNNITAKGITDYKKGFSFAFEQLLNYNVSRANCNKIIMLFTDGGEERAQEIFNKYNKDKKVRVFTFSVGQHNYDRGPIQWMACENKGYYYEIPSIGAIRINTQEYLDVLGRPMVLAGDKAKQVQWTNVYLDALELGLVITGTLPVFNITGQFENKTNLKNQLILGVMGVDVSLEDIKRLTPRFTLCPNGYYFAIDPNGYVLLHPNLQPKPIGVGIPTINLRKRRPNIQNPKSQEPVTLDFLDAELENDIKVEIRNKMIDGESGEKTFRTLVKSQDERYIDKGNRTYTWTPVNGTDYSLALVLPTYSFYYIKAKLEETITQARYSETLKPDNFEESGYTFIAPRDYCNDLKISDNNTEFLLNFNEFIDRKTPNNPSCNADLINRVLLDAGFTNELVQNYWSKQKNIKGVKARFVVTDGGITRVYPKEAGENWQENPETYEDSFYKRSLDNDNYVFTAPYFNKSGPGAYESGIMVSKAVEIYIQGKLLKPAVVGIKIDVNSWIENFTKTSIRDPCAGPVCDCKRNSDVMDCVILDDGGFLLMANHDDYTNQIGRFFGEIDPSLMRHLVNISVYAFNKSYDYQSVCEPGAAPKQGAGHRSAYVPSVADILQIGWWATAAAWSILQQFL
T1 sequence (P54289 947-1103 partner limits assumed): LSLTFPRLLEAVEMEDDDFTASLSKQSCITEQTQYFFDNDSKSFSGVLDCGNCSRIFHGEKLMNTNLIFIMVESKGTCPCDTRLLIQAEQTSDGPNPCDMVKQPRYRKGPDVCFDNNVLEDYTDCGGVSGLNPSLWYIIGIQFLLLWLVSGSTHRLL
Type: cell-based
Description: TSA201 cells stably transfected with human Cav2.2 (composed of the subunits α1, β3 and α2δ) and human Kir2.3 to enhance the FLIPR Ca^2+ signal were used. These cells were plated on 384-well collagen-coated plates (BD Bioscience, Franklin Lakes, N.J.) at a density of 2×10^4 cells/well one day prior to the FLIPR assay. […] Culture media is removed and replaced with 25 μl of the FLUO-4 dye solution and incubated for one hour at room temperature. The cell plate is then placed on the FLIPR where the dye is aspirated off and replaced with 25 μl of HBSS (Invitrogen, Carlsbad, Calif.). The HBSS is then aspirated and replaced with […] of compound which is diluted in HBSS with 1% DMSO. Compounds are incubated on the cells for 15 minutes. The cells are then depolarized with 25 μl of 140 mM KCl solution (also containing 2 mM CaCl2 and 10 mM HEPES). The final concentration of KCl on the cells is 70 mM.

SMILES	IC50 [µM]
CCN(c1nc(CN(C(=O)C(C)(C)C)c2cccc(C)c2)cs1)C1CC1 [Compound 172, N-({2-[cyclopropyl(ethyl)amino]-1,3-thiazol-4-yl}methyl)-2,2-dimethyl-N-(3-methylphenyl)propanamide]	4.3
CCN(c1nc(CN(C(=O)C(C)(C)C)c2ccc(OC)cc2)cs1)C1CC1 [Compound 175, N-({2-[cyclopropyl(ethyl)amino]-1,3-thiazol-4-yl}methyl)-N-(4-methoxyphenyl)-2,2-dimethylpropanamide]	3.6
COc1ccc(N(C)c2nc(CN(C(=O)C(C)(C)C)c3ccc(F)cc3)cs2)cc1 [Compound 142, N-(4-fluroophenyl)-N-({2-[(4-methoxyphenyl)(methyl)amino]-1,3-thiazol-4-yl}methyl)-2,2-dimethylpropanamide]	6.8
CC(C)(C)C(=O)N(Cc1csc(N2CCN(c3ncccn3)CC2)n1)c1ccc(F)cc1 [Compound 151, N-(4-fluorophenyl)-2,2-dimethyl-N-{[2-(4-pyrimidin-2-ylpiperazin-1-yl)-1,3-thiazol-4-yl]methyl}propanamide dihydrochloride]	4
CCN(c1nc(CN(C(=O)C(C)(C)C)c2ccc(F)cc2)cs1)C1CC1 [Compound 143, N-({2-[cyclopropyl(ethyl)amino]-1,3-thiazol-4-yl}methyl)-N-(4-fluorophenyl)-2,2-dimethylpropanamide]	3.8
CCN(c1nc(CN(C(=O)C(C)(C)C)c2ccc(C)cc2)cs1)C1CC1 [Compound 173, N-({2-[cyclopropyl(ethyl)amino]-1,3-thiazol-4-yl}methyl)-2,2-dimethyl-N-(4-methylphenyl)propanamide]	3.8
Cc1ccc(OCCN(C)c2ccc(CN(C(=O)C(C)(C)C)c3ccc(F)cc3)cn2)nc1 [Compound 131, N-(4-fluorophenyl)-2,2-dimethyl-N-{[6-(methyl{2-[(5-methylpyridin-2-yl)oxy]ethyl}amino)pyridin-3-yl]methyl}propanamide]	8.1
CC(C)(C)C(=O)N(Cc1csc(N2CCN(CCc3ccccc3)CC2)n1)c1ccc(F)cc1 [Compound 165, N-(4-fluroophenyl)-2,2-dimethyl-N-({2-[4-(2-phenylethyl)piperazin-1-yl]--1,3-thiazol-4-yl}methyl)propanamide]	3.6
CCN(c1nc(CN(C(C)=O)C2CCC(C(C)(C)C)CC2)cs1)C1CC1 (stereo not drawn) [Compound 238, N-(4-tert-butylcyclohexyl)-N-({2-[cyclopropyl(ethyl)amino]-1,3-thiazol-4-yl}methyl)acetamide]	3.3
CC(C)(C)C(=O)N(Cc1csc(-c2ccccc2)n1)c1ccc(F)cc1 [Compound 180, N-(4-fluorophenyl)-2,2-dimethyl-N-[(2-phenyl-1,3-thiazol-4-yl)methyl]propanamide]	7.9
CC(CC(=O)N(Cc1ccc(N(C)CCc2ccccn2)nc1)c1ccc(F)cc1)C(F)(F)F (stereo not drawn) [Compound 127]	2.6
CC(C)CNc1nc(CN(C(=O)C(C)(C)C)c2ccc(F)cc2)cs1 [Compound 161, N-(4-fluorophenyl)-N-{[2-(isobutylamino)-1,3-thiazol-4-yl]methyl}-2,2-dimethylpropanamide]	2.7
CC(C)(C)OC(=O)N1CCC(c2nc(CN(C(=O)C(C)(C)C)c3ccc(F)cc3)cs2)CC1 [Compound 209, tert-butyl 4-(4-{[(2,2-dimethylpropanoyl)(4-fluorophenyl)amino]methyl}--1,3-thiazol-2-yl)piperidine-1-carboxylate]	2.7
CC(C)(C)C(=O)N(Cc1csc(N2CCN(C(c3ccccc3)c3ccccc3)CC2)n1)c1ccc(F)cc1 [Compound 167, N-({2-[4-(diphenylmethyl)piperazin-1-yl]-1,3-thiazol-4-yl}methyl)-N-(4-fluroophenyl)-2,2-dimethylpropanamide]	13.3
Cc1ccc(N(Cc2cnc(N3CCCC3)s2)C(=O)[C@@H]2CCCN2)cc1 [Compound 121, N-(4-methylphenyl)-N-[(2-pyrrolidin-1-yl-1,3-thiazol-5-yl)methyl]-L-prolinamide]	20.9
CC(C)(C)OC(=O)N1CCN(c2nc(CN(C(=O)C(C)(C)C)c3ccc(F)cc3)cs2)CC1 [Compound 146, tert-butyl 4-(4-{[(2,2-dimethylpropanoyl)(4-fluorophenyl)amino]methyl}--1,3-thiazol-2-yl)piperazine-1-carboxylate]	35.4
CC(C)N1CCN(c2nc(CN(C(=O)C(C)(C)C)c3ccc(F)cc3)cs2)CC1 [Compound 148, N-(4-fluroophenyl)-N-{[2-(4-isopropylpiperazin-1-yl)-1,3-thiazol-4-yl]methyl}-2,2-dimethylpropanamide]	15.4
CN(C)CCCN1CCN(c2nc(CN(C(=O)C(C)(C)C)c3ccc(F)cc3)cs2)CC1 [Compound 166, N-[(2-{4-[3-(dimethylamino)propyl]piperazin-1-yl}-1,3-thiazol-4-yl)methyl]-N-(4-fluorophenyl)-2,2-dimethylpropanamide]	19.8

Continued, values first:

IC50 [µM]	SMILES
16.6	CC(=O)N(Cc1csc(N2CCC(C#N)CC2)n1)c1ccc(F)cc1 [Compound 220, N-{[2-(4-cyanopiperidin-1-yl)-1,3-thiazol-4-yl]methyl}-N-(4-fluorophenyl)acetamide]
34.4	CN1CCN(c2ccc(CN(C(=O)C3CCCO3)c3ccc(F)cc3)cn2)CC1 (stereo not drawn) [Compound 250, N-(4-fluorophenyl)-N-{[6-(4-methylpiperazin-1-yl)pyridin-3-yl]methyl}tetrahydrofuran-2-carboxamide]
11.2	O=C(C1CCCCC1)N(Cc1csc(N2CCOCC2)n1)c1ccc(F)cc1 [Compound 137, N-(4-fluorophenyl)-N-[(2-morpholin-4-yl-1,3-thiazol-4-yl)methyl]cyclohexanecarboxamide]
49.7	CC(=O)N(Cc1ccc(N2CCC(O)CC2)nc1)c1ccc(F)cc1 [Compound 231, N-(4-fluorophenyl)-N-{[6-(4-hydroxypiperidin-1-yl)pyridin-3-yl]methyl}acetamide]
13.8	CC(C)(C)C(=O)N(Cc1ccc(N2CCOCC2)nc1)c1ccc(F)cc1 [Compound 196, N-(4-fluorophenyl)-2,2-dimethyl-N-[(6-morpholin-4-ylpyridin-3-yl)methyl]propanamide]
9.1	O=C(C1CCCCC1)N(Cc1ccc(N2CCN(c3ccccn3)CC2)nc1)c1ccc(F)cc1 [Compound 128, N-(4-fluorophenyl)-N-{[6-(4-pyridin-2-ylpiperazin-1-yl)pyridin-3-yl]methyl}cyclohexanecarboxamide]
55.6	CN1CCN(c2ccc(CN(C(=O)[C@@H]3CCN(C(=O)C(C)(C)C)C3)c3ccc(F)cc3)cn2)CC1 [Compound 261, (3R)-1-(2,2-dimethylpropanoyl)-N-(4-fluorophenyl)-N-{[6-(4-methylpiperazin-1-yl)pyridin-3-yl]methyl}pyrrolidine-3-carboxamide]
11.5	CCN(CC)C1CCN(c2ccc(CN(C(=O)C(C)(C)C)c3ccc(F)cc3)cn2)C1 (stereo not drawn) [Compound 133, N-({6-[3-(diethylamino)pyrrolidin-1-yl]pyridin-3-yl}methyl)-N-(4-fluorophenyl)-2,2-dimethylpropanamide]
8.7	CCN(CC)c1nc(CN(C(C)=O)c2ccc(F)cc2)cs1 [Compound 219, N-{[2-(diethylamino)-1,3-thiaozl-4-yl]methyl}-N-(4-fluorophenyl)acetamide]
11.1	CC(C)(C)OC(=O)c1cccc(-c2ccc(CN(C(=O)C(C)(C)C)c3ccc(F)cc3)cn2)c1 [Compound 202, tert-butyl 3-(5-{[(2,2-dimethylpropanoyl)(4-fluorophenyl)amino]methyl}pyridin-2-yl)benzoate]
19.7	CC(=O)N(Cc1ccc(N2CCC(C#N)CC2)nc1)c1ccc(F)cc1 [Compound 229, N-{[6-(4-cyanopiperidin-1-yl)pyridin-3-yl]methyl}-N-(4-fluorophenyl)acetamide]
23.9	O=C(C1CC1)N(Cc1csc(N2CCOCC2)n1)c1ccc(F)cc1 [Compound 207, N-(4-fluorophenyl)-N-[(2-morpholin-4-yl-1,3-thiazol-4-yl)methyl]cyclopropanecarboxamide]
2.8	CC(C)(C)C(=O)N(Cc1csc(N2CCN(c3ccccc3)CC2)n1)c1ccc(F)cc1 [Compound 147, N-(4-fluorophenyl)-2,2-dimethyl-N-{[2-(4-phenylpiperazin-1-yl)-1,3-thiazol-4-yl]methyl}propanamide]
22.2	CC(C)C(=O)N(Cc1csc(N2CCOCC2)n1)c1ccc(F)cc1 [Compound 208, N-(4-fluorophenyl)-2-methyl-N-[(2-morpholin-4-yl-1,3-thiazol-4-yl)methyl]propanamide]
29.4	CC(=O)N(Cc1csc(N2CCN(C)CC2)n1)c1ccc(F)cc1 [Compound 216, N-(4-fluorophenyl)-N-{[2-(4-methylpiperazin-1-yl)-1,3-thiazol-4-yl]methyl}acetamide]
30.2	CC(=O)N(Cc1ccc(N2CCCC(O)C2)nc1)c1ccc(F)cc1 (stereo not drawn) [Compound 232, N-(4-fluorophenyl)-N-{[6-(3-hydroxypiperidin-1-yl)pyridin-3-yl]methyl}acetamide]
3	CC(C)(C)C(=O)N(Cc1csc(N2CCCC(CO)C2)n1)c1ccc(F)cc1 (stereo not drawn) [Compound 187, N-(4-fluorophenyl)-N-({2-[3-(hydroxymethyl)piperidin-1-yl]-1,3-thiazol-4-yl}methyl)-2,2-dimethylpropanamide]
1.5	CCN(CC)c1ccc(CN(C(=O)Cc2cccs2)c2ccc(F)cc2)cn1 [Compound 129]
